The text below walks through data of US9102614B2, “Naphth-2-ylacetic acid derivatives to treat AIDS” (Gilead Sciences, Inc., priority 2010, dated 2015).

The experiment has as its system HIV-IIIb. Nature of the experiment: Test A: Antiviral Assays in MT4 Cells. The experiment is classed as cell-based. The method, then: Test A: Antiviral Assays in MT4 Cells
For the antiviral assay utilizing MT-4 cells, 0.4 μL of […] test concentration of 3-fold serially diluted compound in DMSO was added to 40 μL of cell growth medium (RPMI 1640, 10% FBS, 1% penicillin/Streptomycin, 1% L-Glutamine, 1% HEPES) in each well of 384-well assay plates (10 concentrations) in quadruplicate.
1 mL aliquots of 2×10e6 MT-4 cells are pre-infected for 1 and 3 hrs respectively, @37° C. with 25 μL (MT4) or of either cell growth medium (mock-infected) or a fresh 1:250 dilution of an HIV-IIIb concentrated ABI stock (0.004 m.o.i. for MT4 cells). Infected and uninfected cells are diluted in cell growth medium and 35 uL of 2000 (for MT4) cells is added to each well of the assay plates.
Assay plates were then incubated in a 37° C. incubator. After 5 days of incubation, 25 μl of 2× concentrated CellTiter-Glo™ Reagent (catalog #G7573, Promega Biosciences, Inc., Madison, Wis.) was added to each well of the assay plate. Cell lysis was carried out by incubating at room temperature for 2-3 min and then chemiluminescence was read using the Envision reader (PerkinElmer).

Where [1] appears, read: Human immunodeficiency virus 1, IIIB, MT4, 120 h, MT-4 cells infected with HIV-IIIb (0.004 m.o.i.), 5 days of incubation, CellTiter-Glo chemiluminescence readout, read-out: EC50.
[2] abbreviates: MT-4 cells infected with HIV-IIIb (0.004 m.o.i.), 5 days of incubation, CellTiter-Glo chemiluminescence readout, read-out: EC50.

Where two headings read alike, the source gives them in different places.

Regarding `CC(C)(C)O[C@H](C(=O)O)c1c(CN2CCOCC2)cc2ccccc2c1-c1ccc(Cl)cc1` [Compound 27, (S)-2-tert-Butoxy-2-(1-(4-chlorophenyl)-3-(morpholinomethyl)naphthalen-2-yl)acetic acid], the concentration for a half-maximal effect (EC50) (commonly the concentration needed to bring the measured effect to its halfway point) under setting [1] amounted to 3500 nM.

On to `COCc1cc2ccccc2c(-c2ccc(Cl)cc2)c1[C@H](OC(C)(C)C)C(=O)O` [Compound 28, (S)-2-tert-Butoxy-2-(1-(4-chlorophenyl)-3-(methoxymethyl)naphthalen-2-yl)acetic acid], for which the EC50 under setting [1] came to 400 nM.

For `C=Cc1cc2ccccc2c(-c2ccc(Cl)cc2)c1[C@H](OC(C)(C)C)C(=O)O` [Compound 29A, (S)-2-tert-Butoxy-2-(1-(4-chlorophenyl)-3-vinylnaphthalen-2-yl)acetic acid], the EC50 under setting [1] was 130 nM. On the same count and under the same terms, for `CCc1cc2ccccc2c(-c2ccc(Cl)cc2)c1[C@H](OC(C)(C)C)C(=O)O` [Compound 29B, (S)-2-tert-butoxy-2-(1-(4-chlorophenyl)-3-ethylnaphthalen-2-yl)acetic acid] the value was 500 nM; for `CC(C)(C)O[C@H](C(=O)O)c1c(CO)cc2ccccc2c1-c1ccc(Cl)cc1` [Compound 30, (S)-2-tert-Butoxy-2-(1-(4-chlorophenyl)-3-(hydroxymethyl)naphthalen-2-yl)acetic acid], 44 nM. In the case of `CC(C)(C)O[C@H](C(=O)O)c1c(CF)cc2ccccc2c1-c1ccc2c3c(ccnc13)CCO2` [Compound 31, (S)-2-tert-Butoxy-2-((R)-1-(2,3-dihydropyrano[4,3,2-de]quinolin-7-yl)-3-(fluoromethyl)naphthalen-2-yl)acetic acid], the EC50 under setting [1] came out at 110 nM. As for `CC(C)(C)O[C@H](C(=O)O)c1c(C(F)F)cc2ccccc2c1-c1ccc2c3c(ccnc13)CCO2` [Compound 32, (S)-2-tert-Butoxy-2-((R)-3-(difluoromethyl)-1-(2,3-dihydropyrano[4,3,2-de]quinolin-7-yl)naphthalen-2-yl)acetic acid], under setting [1], the 50% effective concentration (EC50) amounted to 86 nM.

Take `Cc1cc2ccccc2c(-c2ccc(Cl)cc2Cl)c1C(OC(C)(C)C)C(=O)O` (centres unmarked) [Compound 33, tert-Butoxy-[1-(2,4-dichloro-phenyl)-3-methyl-naphthalen-2-yl]-acetic acid]: the EC50 under setting [1] worked out at 120 nM. Same read-out and setting: to `COc1cccc2c(-c3ccc(Cl)cc3)c(C(OC(C)(C)C)C(=O)O)c(C)cc12` (centres unmarked) [Compound 34, tert-Butoxy-[1-(4-chloro-phenyl)-5-methoxy-3-methyl-naphthalen-2-yl]-acetic acid] belongs 350 nM; to `Cc1cc2c(Br)cccc2c(-c2ccc(Cl)cc2)c1C(OC(C)(C)C)C(=O)O` (centres unmarked) [Compound 37, 2-(5-Bromo-1-(4-chlorophenyl)-3-methylnaphthalen-2-yl)-2-tert-butoxyacetic acid], 1200 nM; to `Cc1cc2c(-c3ccc(Cl)cc3)cccc2c(-c2ccc(Cl)cc2)c1C(OC(C)(C)C)C(=O)O` (centres unmarked) [Compound 38, 2-(1,5-Bis(4-chlorophenyl)-3-methylnaphthalen-2-yl)-2-tert-butoxyacetic acid], 3400 nM. `Cc1cc2c(C#CCN(C)C)cccc2c(-c2ccc(Cl)cc2)c1C(OC(C)(C)C)C(=O)O` (centres unmarked) [Compound 39, 2-tert-Butoxy-2-(1-(4-chlorophenyl)-5-(3-(dimethylamino)prop-1-ynyl)-3-methylnaphthalen-2-yl)acetic acid] returned a 50% effective concentration (EC50) (Human immunodeficiency virus 1, IIIB, MT4, 120 h) of 700 nM.

For `Cc1cc2c(C)cccc2c(-c2ccc(Cl)cc2)c1C(OC(C)(C)C)C(=O)O` (centres unmarked) [Compound 40, 2-tert-Butoxy-2-(1-(4-chlorophenyl)-3,5-dimethylnaphthalen-2-yl)acetic acid], under setting [1], the EC50 was 210 nM. For the compound `Cc1cc2c(-c3cncnc3)cccc2c(-c2ccc(Cl)cc2)c1C(OC(C)(C)C)C(=O)O` (centres unmarked) [Compound 41, 2-tert-Butoxy-2-(1-(4-chlorophenyl)-3-methyl-5-(pyrimidin-5-yl)naphthalen-2-yl)acetic acid], the EC50 under setting [1] was 400 nM. In the case of `Cc1cc2cc(F)ccc2c(-c2ccc(Cl)cc2)c1C(OC(C)(C)C)C(=O)O` (centres unmarked) [Compound 42, 2-tert-Butoxy-2-(1-(4-chlorophenyl)-6-fluoro-3-methylnaphthalen-2-yl)acetic acid], the concentration giving a half-maximal response (EC50) under setting [1] is 110 nM. For the compound `Cc1cc2cc(F)ccc2c(-c2ccc3c4c(ccnc24)CCO3)c1C(OC(C)(C)C)C(=O)O` [Compound 43, 2-tert-butoxy-2-((R)-1-(2,3-dihydropyrano[4,3,2-de]quinolin-7-yl)-6-fluoro-3-methylnaphthalen-2-yl)acetic acid], under setting [2], the EC50 stood at 22 nM. As for `Cc1cc2c(F)cccc2c(-c2ccc3c4c(ccnc24)CCO3)c1C(OC(C)(C)C)C(=O)O` (centres unmarked) [Compound 44, 2-tert-Butoxy-2-(1-(2,3-dihydropyrano[4,3,2-de]quinolin-7-yl)-5-fluoro-3-methylnaphthalen-2-yl)acetic acid], under setting [1], the 50% effective concentration (EC50) was found to be 120 nM.

In the case of `Cc1cc2c(Cl)cccc2c(-c2ccc(Cl)cc2)c1C(OC(C)(C)C)C(=O)O` (centres unmarked) [Compound 45, 2-tert-Butoxy-2-(5-chloro-1-(4-chlorophenyl)-3-methylnaphthalen-2-yl)acetic acid], the 50% effective concentration (EC50) under setting [1] was 1800 nM.

Take `Cc1cc2c(F)cccc2c(-c2ccc(Cl)cc2)c1C(OC(C)(C)C)C(=O)O` (centres unmarked) [Compound 46, 2-tert-Butoxy-2-(1-(4-chlorophenyl)-5-fluoro-3-methylnaphthalen-2-yl)acetic acid]: the 50% effective concentration (EC50) under setting [1] worked out at 1400 nM. For `Cc1cc2c(Cl)cccc2c(-c2ccc3c4c(ccnc24)CCO3)c1C(OC(C)(C)C)C(=O)O` [Compound 47, 2-tert-Butoxy-2-((R)-5-chloro-1-(2,3-dihydropyrano[4,3,2-de]quinolin-7-yl)-3-methylnaphthalen-2-yl)acetic acid], the 50% effective concentration (EC50) under setting [2] came out at 110 nM. As to `COc1ccc2c(-c3ccc(Cl)cc3)c(C(OC(C)(C)C)C(=O)O)c(C)cc2c1` (centres unmarked) [Compound 48, 2-tert-Butoxy-2-(1-(4-chlorophenyl)-6-methoxy-3-methylnaphthalen-2-yl)acetic acid], under setting [1], the 50% effective concentration (EC50) came to 210 nM. The same measure, in the same setting: for `COc1ccc(Cc2c(OC)ccc3c(-c4ccc(Cl)cc4)c(C(OC(C)(C)C)C(=O)O)c(C)cc23)cc1` (centres unmarked) [Compound 49, 2-tert-Butoxy-2-(1-(4-chlorophenyl)-6-methoxy-5-(4-methoxybenzyl)-3-methylnaphthalen-2-yl)acetic acid] the value was 650 nM; for `Cc1cc2cc(-c3ccncc3)ccc2c(-c2ccc(Cl)cc2)c1[C@H](OC(C)(C)C)C(=O)O` [Compound 53, (S)-2-tert-Butoxy-2-(1-(4-chlorophenyl)-3-methyl-6-(pyridin-4-yl)naphthalen-2-yl)acetic acid], 120 nM; for `Cc1cc2cc(-c3cccnc3)ccc2c(-c2ccc(Cl)cc2)c1[C@H](OC(C)(C)C)C(=O)O` [Compound 54, (S)-2-tert-Butoxy-2-(1-(4-chlorophenyl)-3-methyl-6-(pyridin-3-yl)naphthalen-2-yl)acetic acid], 55 nM. In the case of `Cc1cc2cc(-c3cncnc3)ccc2c(-c2ccc(Cl)cc2)c1[C@H](OC(C)(C)C)C(=O)O` [Compound 55, (S)-2-tert-Butoxy-2-(1-(4-chlorophenyl)-3-methyl-6-(pyrimidin-5-yl)naphthalen-2-yl)acetic acid], under setting [1], the EC50 turned out to be 54 nM. The same measure, in the same setting: for `Cc1cc2cc(-c3cn[nH]c3)ccc2c(-c2ccc(Cl)cc2)c1[C@H](OC(C)(C)C)C(=O)O` [Compound 57, (S)-2-tert-Butoxy-2-(1-(4-chlorophenyl)-3-methyl-6-(1H-pyrazol-4-yl)naphthalen-2-yl)acetic acid] the value was 82 nM; for `Cc1ccc2c(-c3ccc(Cl)cc3)c(C(OC(C)(C)C)C(=O)O)c(C)cc2c1` (centres unmarked) [Compound 58, 2-tert-Butoxy-2-(1-(4-chlorophenyl)-3,6-dimethylnaphthalen-2-yl)acetic acid], 42 nM.

In the case of `Cc1cc2cc(-c3ncccn3)ccc2c(-c2ccc(Cl)cc2)c1[C@H](OC(C)(C)C)C(=O)O` [Compound 59, (S)-2-tert-butoxy-2-(1-(4-chlorophenyl)-3-methyl-6-(pyrimidin-2-yl)naphthalen-2-yl)acetic acid], the concentration giving a half-maximal response (EC50) under setting [1] came out at 160 nM.

For `Cc1cc2cc(-c3cnccn3)ccc2c(-c2ccc(Cl)cc2)c1[C@H](OC(C)(C)C)C(=O)O` [Compound 60, (S)-2-tert-Butoxy-2-(1-(4-chlorophenyl)-3-methyl-6-(pyrazin-2-yl)naphthalen-2-yl)acetic acid], the concentration giving a half-maximal response (EC50) under setting [1] stood at 32 nM.

On to `Cc1cc2cc(-c3ccccn3)ccc2c(-c2ccc(Cl)cc2)c1[C@H](OC(C)(C)C)C(=O)O` [Compound 63, (S)-2-tert-Butoxy-2-(1-(4-chlorophenyl)-3-methyl-6-(pyridin-2-yl)naphthalen-2-yl)acetic acid], for which the EC50 under setting [1] was found to be 99 nM. `Cc1cc2cc(-c3cn(C)cn3)ccc2c(-c2ccc(Cl)cc2)c1[C@H](OC(C)(C)C)C(=O)O` [Compound 64, (S)-2-tert-Butoxy-2-(1-(4-chlorophenyl)-3-methyl-6-(1-methyl-1H-imidazol-4-yl)naphthalen-2-yl)acetic acid]: the EC50 under setting [1] stood at 52 nM. As to `Cc1cc2cc(-c3cncn3C)ccc2c(-c2ccc(Cl)cc2)c1[C@H](OC(C)(C)C)C(=O)O` [Compound 65, (S)-2-tert-butoxy-2-(1-(4-chlorophenyl)-3-methyl-6-(1-methyl-1H-imidazol-5-yl)naphthalen-2-yl)acetic acid], the EC50 under setting [1] turned out to be 190 nM.
